In article PMC11647725, “Discovery of 4-(5-Membered)Heteroarylether-6-methylpicolinamide Negative Allosteric Modulators of Metabotropic Glutamate Receptor Subtype 5” (ACS Medicinal Chemistry Letters, 2024):

What was measured:
human mGlu8 = biological target: T1, human mGlu8 (Homo sapiens, UniProt O00222); experiment: mGlu selectivity, calcium mobilization assay; format: cell-based
T1 construct: expressed in transfected cells
Protocol: (§1) the presence of 5% CO2, the dye solutions were removed and replaced with assay buffer using a microplate washer, leaving 20 μL of assay buffer in the cell plate. The compound, agonist, and cell plates were placed inside the Functional Drug Screening System (FDSS 7000 or uCell, Hamamatsu, Japan) to measure the calcium flux. Assays were run at 37 °C. A triple add protocol was used to measure Ca kinetics. Briefly, after establishment of a fluorescence baseline for 2 seconds (excitation, 480 nm; emission, 530 nm), 20 µL of test compound was added to the cells and the response was measured for 140 seconds. This was followed by the addition of 10 µL (5X) of an EC20 concentration of Glu agonist, and the response of the cells was measured for 125 seconds. A third addition occurred by adding 12 uL (5X) of an EC80 concentration of Glu agonist and the response of the cells was measured for 90 seconds. […] Calcium fluorescence was recorded as fold over basal fluorescence and raw data were normalized to the maximal response to Glu agonist (ECMax). Compound-evoked decreases in calcium response in the presence of Glu EC80 agonist were determined as inhibition activity, and potency (IC50) and maximum inhibition responses (% GluMin) of compounds were determined using a four-parameter logistical equation using GraphPad Prism (La Jolla, CA) or the Dotmatics software platform (Woburn, MA) : […]

human mGlu7 = biological target: T2, human mGlu7 (Homo sapiens, UniProt Q14831); experiment: mGlu selectivity, calcium mobilization assay; format: cell-based
T2 construct: expressed in transfected cells
Protocol: as §1

[1] = Binding in plasma from rat (equilibrium dialysis); format: in vitro ADME; conditions: rat, plasma, fraction unbound; equilibrium dialysis; read-out: Rat fu,plasma
Protocol: Binding in plasma from rat and human.
Determination of compounds’ fraction unbound (f u) in plasma from rat and human was conducted in vitro via equilibrium dialysis using HTDialysis membrane plates. Dialysis membranes (four paired strips per HTD assay) were hydrated as described by the manufacturer and inserted into the HTD plate, which was assembled and prepared for sample addition by the dispensing of blank buffer (DPBS, 100 µL/well) into the ‘top half’ of each membrane-split well. Each compound was diluted into plasma from each species (5 µM final concentration), which was aliquoted in triplicate to the ‘bottom half’ of the prepared HTD plate wells. The HTD plate was sealed and incubated for 6 hours at 37 °C. Following incubation, each well (both top and bottom halves) were transferred (20 µL) to the corresponding wells of a 96-shallow-well (V-bottom) plate. The daughter plates were then matrix-matched (buffer side wells received equal volume of plasma, and plasma side wells received equal volume of buffer), and extraction solution (120 µL; acetonitrile containing 50 nM carbamazepine as IS) was added to all wells of both daughter plates to precipitate protein and extract test article. The plates were then sealed and centrifuged (3500 rcf) for 10 minutes at ambient temperature. Supernatant (60 µL) from each well of the daughter plates was then transferred to the corresponding wells of new daughter plates (96-shallow-well, V bottom) containing water (Milli-Q, 60 µL/well), and the plates were sealed in preparation for LC-MS/MS analysis (see below). fu was calculated as (analyte to IS MS peak area ratio from Trans-buffer side) / (analyte to IS MS peak area ratio from Cis-plasma side). Mean values for each species were calculated from 3 replicates. […]
Mean values for each species were calculated from 3 replicates. […]
After 5 minutes (pre-incubation), reactions were initiated by addition of nicotinamide adenine dinucleotide phosphate (NADPH, 1 mM final concentration). At selected time intervals (0, 3, 7, 15, 25, and 45 minutes) post-addition of NADPH, aliquots (50 µL) were taken and placed into a 96-shallow-well plate containing ice cold acetonitrile (150 µL) with carbamazepine (IS, 50 nM). The plates were then centrifuged (3000 rcf at 4 °C) for 10 minutes. The supernatants were transferred to a new 96-shallow-well daughter plate and diluted (1:1 v/v) with water (Milli-Q filtered). The plates were then sealed in preparation for LC-MS/MS analysis (see below).

Potassium Channel [KATP] = experiment: Lead Profiling Screen, Eurofins Panlabs; format: binding, hamster; conditions: ham
Sodium Channel, Site 2 = experiment: Lead Profiling Screen, Eurofins Panlabs; format: binding; conditions: Site 2, rat
CYP 1A2 = biological target: T3, CYP 1A2 (Homo sapiens, UniProt P05177); experiment: P450 inhibition in pooled human liver microsomes; format: in vitro ADME; conditions: pooled HLM, NADPH, CYP-specific probe substrates; listed as VU6043653
T3 construct: from tissue; host or cells: pooled human liver microsomes (per the earlier reading)
T3 sequence (P05177 whole entry): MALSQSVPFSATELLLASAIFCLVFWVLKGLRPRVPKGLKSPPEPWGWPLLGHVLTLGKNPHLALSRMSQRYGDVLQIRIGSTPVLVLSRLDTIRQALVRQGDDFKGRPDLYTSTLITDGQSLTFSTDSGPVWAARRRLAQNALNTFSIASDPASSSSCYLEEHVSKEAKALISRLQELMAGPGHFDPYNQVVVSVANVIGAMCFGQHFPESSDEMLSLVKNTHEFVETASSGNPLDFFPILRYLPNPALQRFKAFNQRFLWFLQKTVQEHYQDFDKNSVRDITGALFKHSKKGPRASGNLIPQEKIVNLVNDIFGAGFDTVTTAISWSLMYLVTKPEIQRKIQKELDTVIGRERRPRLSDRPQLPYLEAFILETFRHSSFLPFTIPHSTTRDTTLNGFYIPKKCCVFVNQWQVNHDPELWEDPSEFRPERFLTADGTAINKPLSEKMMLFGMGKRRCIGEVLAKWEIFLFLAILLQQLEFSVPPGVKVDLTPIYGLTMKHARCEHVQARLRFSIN

T2 sequence (Q14831 35-915): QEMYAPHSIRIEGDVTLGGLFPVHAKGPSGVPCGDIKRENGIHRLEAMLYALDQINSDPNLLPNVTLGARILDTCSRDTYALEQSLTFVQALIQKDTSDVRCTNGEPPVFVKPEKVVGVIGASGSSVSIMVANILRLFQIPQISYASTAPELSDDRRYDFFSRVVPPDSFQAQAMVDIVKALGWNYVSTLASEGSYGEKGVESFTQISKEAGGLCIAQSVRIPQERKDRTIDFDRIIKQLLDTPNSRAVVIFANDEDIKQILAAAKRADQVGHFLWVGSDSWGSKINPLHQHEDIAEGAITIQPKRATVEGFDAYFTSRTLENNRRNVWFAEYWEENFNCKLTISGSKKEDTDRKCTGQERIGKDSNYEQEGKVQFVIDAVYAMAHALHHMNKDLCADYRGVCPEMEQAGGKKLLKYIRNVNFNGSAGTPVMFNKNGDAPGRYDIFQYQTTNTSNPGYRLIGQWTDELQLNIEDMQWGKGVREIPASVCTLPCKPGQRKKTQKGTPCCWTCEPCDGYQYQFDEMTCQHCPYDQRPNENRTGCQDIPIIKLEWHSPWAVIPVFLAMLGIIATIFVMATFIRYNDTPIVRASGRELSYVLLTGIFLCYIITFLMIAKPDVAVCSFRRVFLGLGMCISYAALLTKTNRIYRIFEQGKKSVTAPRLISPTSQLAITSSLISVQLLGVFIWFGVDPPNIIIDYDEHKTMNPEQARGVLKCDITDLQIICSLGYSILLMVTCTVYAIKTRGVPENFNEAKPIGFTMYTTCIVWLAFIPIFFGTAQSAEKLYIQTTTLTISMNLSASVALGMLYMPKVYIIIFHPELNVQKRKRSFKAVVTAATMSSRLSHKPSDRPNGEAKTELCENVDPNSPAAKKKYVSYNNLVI
T1 sequence (O00222 34-908): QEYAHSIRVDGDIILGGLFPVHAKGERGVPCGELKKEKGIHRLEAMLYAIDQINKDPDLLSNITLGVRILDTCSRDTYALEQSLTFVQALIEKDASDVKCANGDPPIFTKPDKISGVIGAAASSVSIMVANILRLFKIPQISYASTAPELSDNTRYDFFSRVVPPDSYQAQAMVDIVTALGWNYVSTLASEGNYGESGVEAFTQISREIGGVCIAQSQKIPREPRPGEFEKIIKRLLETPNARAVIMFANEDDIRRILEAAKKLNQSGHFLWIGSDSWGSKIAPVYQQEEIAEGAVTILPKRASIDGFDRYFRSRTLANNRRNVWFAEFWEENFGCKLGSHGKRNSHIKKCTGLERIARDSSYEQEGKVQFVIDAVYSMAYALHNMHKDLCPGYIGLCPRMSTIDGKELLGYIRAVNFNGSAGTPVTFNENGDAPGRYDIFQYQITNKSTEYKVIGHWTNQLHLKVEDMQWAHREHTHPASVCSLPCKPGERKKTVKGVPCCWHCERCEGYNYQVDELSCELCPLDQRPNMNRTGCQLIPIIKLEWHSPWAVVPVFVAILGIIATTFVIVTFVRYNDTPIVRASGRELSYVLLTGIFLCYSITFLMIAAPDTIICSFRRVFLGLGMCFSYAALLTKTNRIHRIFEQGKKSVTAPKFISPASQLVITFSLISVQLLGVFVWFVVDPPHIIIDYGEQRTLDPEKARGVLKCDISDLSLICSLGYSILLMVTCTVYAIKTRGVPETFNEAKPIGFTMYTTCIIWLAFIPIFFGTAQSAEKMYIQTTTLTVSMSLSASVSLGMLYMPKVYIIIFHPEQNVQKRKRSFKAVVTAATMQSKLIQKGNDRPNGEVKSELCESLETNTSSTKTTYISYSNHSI

## Cc1cc(Oc2cnn(C)c2)cc(C(=O)Nc2ccc(F)cn2)n1 [22iA]
Human mGlu8
  IC50, human mGlu8: inactive
Human mGlu7
  IC50, human mGlu7: inactive
[1]
  fraction unbound at 6 h, 5 µM: 0.059
Potassium Channel [KATP]
  % inh at 10 μM: 2%
Sodium Channel, Site 2
  % inh at 10 μM: 25%
CYP 1A2
  IC50: ≥ 30 µM
